# Reference: patent US20250235432A1, “METHODS OF TREATING CANCERS” (Foghorn Therapeutics Inc., priority 2018, published 2025)
# Assays:
# Format in all cases: cell-based
# [1] = system: parental MP41 and PKCi-resistant MP41 uveal melanoma cells; experiment: 7-day growth inhibition assay, parental and PKC inhibitor-resistant cells
# Procedure: Procedure: Uveal melanoma cell lines (92-1, MP41, MP38, MP46), prostate cancer cell lines (LNCAP), lung cancer cell lines (NClH1299), and immortalized embryonic kidney lines (HEK293T) were plated into 96 well plates with growth media (see Table 1). […] Cells were incubated at 37° C. for 3 days. After 3 days of treatment, the media was removed from the cells, and 30 microliters of TrypLE (Gibco) was added to cells for 10 minutes. Cells were detached from the plates and resuspended with the addition of 170 microliters of growth media. Cells from two DMSO-treated control wells were counted, and the initial number of cells plated at the start of the experiment, were re-plated into fresh-compound containing plates for an additional four days at 37° C. At day 7, cells were harvested as described above.
# On day 3 and day 7, relative cell growth was measured by the addition of Cell-titer glo (Promega), and luminescence was measured on an Envision plate reader (Perkin Elmer).
# Procedure: MP41 uveal melanoma cells were made resistant to the PKC inhibitor (LXS196; MedChemExpress), by long-term culture in growth media (see Table 1) containing increasing concentrations of the compound, up to 1 micromolar. After 3 months, sensitivity of the parental MP41 cells and the PKC inhibitor (PKCi)-resistant cells to the PKC inhibitor (LXS196) or the BRG1/BRM ATPase inhibitor (compound 18) was tested in a 7-day growth inhibition assay as described above in Example 2.
# [2] = system: uveal melanoma cell lines 92-1 or MP41; experiment: 3-day growth inhibition of uveal melanoma cell lines, comparison to clinical PKC and MEK inhibitors; conditions: for onset of growth inhibition compared to the clinical PKC and MEK inhibitors: 92-1 or MP41; for growth inhibition of uveal melanoma cells compared to the clinical PKC and MEK inhibitors (LXS196, Selumetinib): 92-1 or MP41, 3 days, 0 to 10 micromolar
# Procedure: Procedure: Uveal melanoma cell lines, 92-1 or MP41, were plated in 96 well plates in the presence of growth media (see Table 1). […] Cells were incubated at 37° C. for 3 days. After 3 days of treatment, cell growth was measured with Cell-titer glow (Promega), and luminescence was read on an Envision plate reader (Perkin Elmer).
# Procedure: Uveal melanoma cell lines, 92-1 or MP41, were plated in 96 well plates in the presence of growth media (see Table 1). BAF ATPase inhibitor (compound 18), PKC inhibitor (LXS196; MedChemExpress), and MEK inhibitor (Selumetinib; Selleck Chemicals) were dissolved in DMSO and added to the cells in a concentration gradient from 0 to 10 micromolar at the time of plating. Cells were incubated at 37° C. for 3 days. After three days of treatment, cell growth was measured with Cell-titer glow (Promega), and luminescence was read on an Envision plate reader (Perkin Elmer).
# [3] = system: uveal melanoma cell lines (92-1, MP41, MP38, MP46); experiment: 3-day growth inhibition of uveal melanoma and non-small cell lung cancer cell lines; conditions: 3 days, 0 to 10 micromolar, FIG. 5
# Procedure: Procedure: Uveal melanoma cell lines (92-1, MP41, MP38, MP46) and non-small cell lung cancer cells (NCl-H1299) were plated into 96 well plates with growth media (see Table 1). BRG1/BRM ATPase inhibitor, compound 18, was dissolved in DMSO and added to the cells in a concentration gradient from 0 to 10 micromolar at the time of plating. Cells were incubated at 37° C. for 3 days. After three days of treatment, cell growth was measured with Cell-titer glow (Promega), and luminescence was read on an Envision plate reader (Perkin Elmer).
Compound,"tolerance of PKCi-resistant cells relative to the parental MP41 cell line ([1]; 7-day assay, FIG. 7A)",onset of growth inhibition compared to the clinical PKC and MEK inhibitors [2],"growth inhibition of uveal melanoma cells compared to the clinical PKC and MEK inhibitors (LXS196, Selumetinib) [2]","sensitivity of PKCi-resistant cells relative to parental MP41 cells ([1]; 7-day assay, FIG. 7B)","growth inhibition of both the PKCi-resistant and parental cell lines ([1]; MP41, 7-day assay, FIG. 7B)",growth inhibition in the uveal melanoma cell lines [3]
"CC1(N)CCN(c2cccnc2NC(=O)c2nc(-c3ncccc3C(F)(F)F)cnc2N)CC1 [LXS196, reference compound]",could tolerate growth at higher concentrations,,,,,
"CSCC[C@H](NC(=O)c1ccc(N)cc1)C(=O)Nc1nc(-c2cccc(-c3ccncc3)c2)cs1 [compound 17, 4-amino-N-[(1S)-3-methylsulfanyl-1-[[4-[3-(4-pyridyl)phenyl]thiazol-2-yl]carbamoyl]propyl]benzamide]",,faster onset of inhibition,comparable growth inhibition,,,
"CSCC[C@H](NC(=O)c1ccn(S(C)(=O)=O)c1)C(=O)Nc1nc(-c2cccc(-c3ccncc3)c2)cs1 [compound 18, (S)-1-(methylsulfonyl)-N-(4-(methylthio)-1-oxo-1-((4-(3-(pyridin-4-yl)phenyl)thiazol-2-yl)amino)butan-2-yl)-1H-pyrrole-3-carboxamide]",,faster onset of growth inhibition,more potent effects on growth inhibition,more sensitive,strong growth inhibition,potent growth inhibition
